Tests used:
HeLa = assay: Cytotoxicity analysis (WST-1); assay type: cell-based; details: Homo sapiens, 48 h
Experimental: (§1) HCC1937 (Human breast cancer line), HeLa (Human […]), A549 (Human lung adenocarcinoma), MRC-5 (Human lung fibroblasts), MCF7 (Human breast cancer cells), A549 (human lung carcinoma) were obtained from American Type Culture Collection and maintained as exponentially growing monolayers by culturing according to the supplier’s instructions. MCF7, HeLa, MRC-5, and A549 cell lines were cultured and routinely passaged in DMEM media containing 10% FBS, while HCC1937 cell lines were propagated in RPMI 1640 containing 10% FBS.
(§2) Following the treatment with compounds or vehicle for 48 h, the 10% WST-1 (Roche, Switzerland) in medium was replaced in each 96 well. After 4 h incubation with WST-1 reagent at 37 °C and 5% CO2, the absorbance was measured using a microplate reader at 440 nm (Varioscan, Thermo Fisher Scientific, US). Graph Pad Prism 5 (San Diego, CA, US.) was used to calculate the IC50, which represents the concentration of compounds that is required for 50% inhibition in comparison to the vehicle-treated controls. The experiments were repeated three times independently.

HCC1937 = assay: Cytotoxicity analysis (WST-1); assay type: cell-based; details: Homo sapiens, HCC1937, 48 h
Experimental: as §1, §2

A549 = assay: Cytotoxicity analysis (WST-1); assay type: cell-based; details: Homo sapiens, A549, 48 h
Experimental: as §1, §2

MCF7 = assay: Cytotoxicity analysis (WST-1); assay type: cell-based; details: Homo sapiens, MCF7, 48 h
Experimental: as §1, §2

MRC-5 = assay: Cytotoxicity analysis (WST-1); assay type: cell-based; details: Homo sapiens, MRC5, MRC-5 normal cell line, 48 h
Experimental: as §1, §2

[1] = test system: HeLa, HCC1937, MCF7, A549 and MRC-5; assay: cells; assay type: cell-based, Human
Text: We next aimed to further characterize the relation between the chemical structure of AG-08 and its capacity of supramolecular assembly formation together with its biological activities by preparing further derivatives. In this regard, 18 analogs (Fig. 4) were synthesized from 20(27)-octanor-cycloastragenol (SCG), cycloastragenol (CG), and astragenol (AG) by the methods shown in the method section. The details and characterization of which are shown in Supplementary Information. The cytotoxic activities of the semi-synthetic analogs were evaluated against four human cancer cell lines, namely HeLa, HCC1937, MCF7, and A549 as well as against MRC-5 as a normal cell line.
as §1, §2

HCC1937 cells [2] = assay: Endocytosis/vesicular trafficking inhibitors against AG-08-mediated cell death; assay type: cell-based, Human; details: 1 h pre-treatment, then 8 µM AG-08 24 h, HCC1937, WST-1
Experimental: Figure 2 AG-08 is related with endosomal pathway. (A) After pre-treatment with 20 µM pitstop II, 0.5 mM methyl-β-cyclodextrin (MβC), 80 µM dynasore, 20 µM cytochalasin d (Cyto D) or 20 µM chlorpromazine (CPZ) for 1 h, HCC1937 cells were treated with 8 µM AG-08 for 24 h. Then cell viability was determined by using WST-1. Reported values were normalized on cells treated with only AG-08. Error bars are the standard deviations (n = 3). p-values were calculated with respect to AG-08 treated cells by two-tailed equal variance Student’s t-test (*p < 0.05, ***p < 0.001, ****p < 0.0001) (B) HCC1937 cells were treated with brefeldin A (Bref A) for 1 h and then treated with 8 µM AG-08 for 24 h. Error bars represent standard deviations (n = 3). p-values were calculated with respect to AG-08-treated cells (*p < 0.05, **p < 0.005, ***p < 0.001). (C) Following AG-08 treatment for 16 h, EEA1 proteins were stained using the anti-EEA1 antibody in HCC1937 cells (scale bar = 25 µm).
Pitstop II (Sigma; SML1169), methyl β cyclodextrin (Cayman; 21,633), chlorpromazine (Cayman; 16,129), dynasore (Cayman, 14,062) and cytochalasin D (Cayman; 11,330) were used as endocytosis inhibitors.

HCC1937 cells [3] = assay: Cytotoxicity of 220 nm filtrates; assay type: cell-based; details: HCC1937, 24 h
Experimental: Figure 1 AG-08 mediated cytotoxicity relies on the supramolecular structures. (A) Structure of AG-08. (B) The scanning transmission electron micrograph of 16 µM AG-08 in PBS. Figure is a representative image of stained sample with uranyl acetate (5683 × magnification; scale bar 600 nm). (C) After 3 h incubation of Nile red solution with AG-08 or AG, fluorescence intensity of Nile red was measured. (D) AG-08, Staurosporine (Sta) or vehicle samples prepared in the cell condition medium was filtrated by 220 nm filter and HCC1937 cells were exposed to the filtrates. After 24 h, the viability of cells was measured and represented as a percentage of that of the vehicle control. The error bars represent mean value ± s.d. (n = 3). *p < 0.05, **p < 0.005, ***p < 0.001. (E) Tween 20 (1:40,000) was added to the fresh medium before addition of 8 μM AG-08 or vehicle. Then cell medium was replaced with this fresh medium. Cell viability was detected after 24 h incubation. […] TEXT PRINTED IN THE PICTURE: (F) no label printed: Diameter: 153.2±4.6; polydispersity index: 0.218
To verify that the activity of AG-08 arises from its supramolecular structures, freshly prepared AG-08 solutions were filtered using 220 nm-filters to remove AG-08 supramolecular particles from medium, and the filtrates were analyzed for their cytotoxicity. […] Next, Tween-20 was utilized as a non-ionic detergent to block particle formation, and AG-08-mediated cell death was inhibited as expected (Fig. 1E). […]

For CC(C)(O)C1CCC(C)(C2C(O)CC3(C)C4CC(=O)C5C(C)(CCC(O)C5(C)C)C4=CCC23C)O1 (stereo not drawn) [AG-01], the IC50 (HeLa) was greater than 30 µM, the IC50 (HCC1937) was greater than 30 µM and the IC50 (A549) was greater than 30 µM. For the same molecule, the IC50 (MCF7) was greater than 30 µM and the IC50 (MRC-5) was greater than 30 µM.

CC(C)(O)C1CCC(C)(C2C(O)CC3(C)C4CC(O)C5C(C)(C)C=CCC5(C)C4=CCC23C)O1 (stereo not drawn) [AG-02] was tested, and the IC50 (HeLa) was 42.6 µM, the IC50 (HCC1937) was 46.1 µM and the IC50 (A549) was 30.5 µM. The IC50 (MCF7) was 32.1 µM, the IC50 (MRC-5) was 39.9 µM and the “cytotoxic activity (structure-activity statement)” value (“cytotoxic activity” for short) [1] was “did not exhibit antiproliferative effect”.

CC(C)(O)C1CCC(C)(C2C(O)CC3(C)C4C=CC5C(C)(CCC(O)C5(C)C)C4=CCC23C)O1 (stereo not drawn) [AG-03] was tested, and the IC50 (HeLa) was 33.4 µM, the IC50 (HCC1937) was 20.3 µM and the IC50 (A549) was 25.5 µM. The IC50 (MCF7) was 21.8 µM and the IC50 (MRC-5) was 24.4 µM.

Work on CC(C)(O)C1CCC(C)(C2C(O)CC3(C)C4C=CC5C(C)(CCC(OS(C)(=O)=O)C5(C)C)C4=CCC23C)O1 (stereo not drawn) [AG-04] yielded an IC50 (HeLa) greater than 50 µM, an IC50 (HCC1937) greater than 50 µM and an IC50 (A549) of 27.5 µM. The IC50 (MCF7) was 22.1 µM, the IC50 (MRC-5) was 29.6 µM and the “cytotoxic activity” value [1] was “the activity was lost”.

In the case of CN(C)c1cccc2c(S(=O)(=O)OC3CCC4(C)C5=CCC6(C)C(C7(C)CCC(C(C)(C)O)O7)C(O)CC6(C)C5C=CC4C3(C)C)cccc12 (stereo not drawn) [AG-07], the IC50 (HeLa) is reported as 34.7 µM, the IC50 (HCC1937) is reported as 38.3 µM and the IC50 (A549) is reported as 38.2 µM. The IC50 (MRC-5) was 7.4 µM and the “cytotoxic activity” value [1] was “loss of activity”.

For C[C@H]1CCC/C=C/[C@@H]2C[C@H](O)C[C@H]2[C@H](O)/C=C/C(=O)O1 [Brefeldin A], the “protection of cells against AG-08-mediated cell death” value (“protection of cells” for short) (HCC1937 cells [2]) was “reduced AG-08 dependent cell death”.

CC(C)(O)C1CCC(C)(C2C(O)CC3(C)C4CC(O)C5C(C)(C)C(O)CCC56CC46CCC23C)O1 (stereo not drawn) [CG, cycloastragenol, reference compound] was tested, and the IC50 (HeLa) was greater than 50 µM, the IC50 (HCC1937) was greater than 50 µM and the IC50 (A549) was greater than 50 µM. For the same molecule, the IC50 (MCF7) was greater than 50 µM and the IC50 (MRC-5) was greater than 50 µM.

CC(C)(O)C1CCC(C)(C2C(O)CC3(C)C4CC(=O)C5C(C)(C)C(O)CCC56CC46CCC23C)O1 (stereo not drawn) [CG-01] gave an IC50 (HeLa) greater than 30 µM, an IC50 (HCC1937) greater than 30 µM and an IC50 (A549) greater than 30 µM. The IC50 (MCF7) was greater than 30 µM and the IC50 (MRC-5) was greater than 30 µM.

CC(C)(O)C1CCC(C)(C2C(O)CC3(C)C4C=CC5C(C)(C)C(O)CCC56CC46CCC23C)O1 (stereo not drawn) [CG-02] was tested, and the IC50 (HeLa) was 43.9 µM, the IC50 (HCC1937) was 32.5 µM and the IC50 (A549) was 21.1 µM. For the same molecule, the IC50 (MCF7) was 21.2 µM, the IC50 (MRC-5) was 33.4 µM and the “cytotoxic activity” value [1] was “did not exhibit antiproliferative effect”.

In the case of CC(C)(O)C1CCC(C)(C2C(O)CC3(C)C4C=CC5C(C)(C)C(OS(C)(=O)=O)CCC56CC46CCC23C)O1 (stereo not drawn) [CG-04], the IC50 (HeLa) is reported as greater than 50 µM, the IC50 (HCC1937) is reported as greater than 50 µM and the IC50 (A549) is reported as greater than 50 µM. For the same molecule, the IC50 (MCF7) was greater than 50 µM, the IC50 (MRC-5) was greater than 50 µM and the “cytotoxic activity” value [1] was “the activity was lost”.

CC1(C)C(O)CCC23CC24CCC2(C)CC(O)CC2(C)C4CC(O)C13 (stereo not drawn) [SCG, 20(27)-octanor-cycloastragenol, reference compound] gave an IC50 (HeLa) greater than 50 µM, an IC50 (HCC1937) greater than 50 µM and an IC50 (A549) greater than 50 µM. For the same molecule, the IC50 (MCF7) was greater than 50 µM and the IC50 (MRC-5) was greater than 50 µM.

Molecule Cc1ccc(S(=O)(=O)OC2CC3(C)CCC45CC46CCC(O)C(C)(C)C6C(O)CC5C3(C)C2)cc1 (stereo not drawn) [SCG-01] has an IC50 (HeLa) greater than 50 µM, an IC50 (HCC1937) greater than 50 µM and an IC50 (A549) greater than 50 µM. It also gave an IC50 (MCF7) greater than 50 µM and an IC50 (MRC-5) greater than 50 µM.

In the case of CC1(C)C(O)CCC23CC24CCC2(C)CC(O)CC2(C)C4C=CC13 (stereo not drawn) [SCG-02], the IC50 (HeLa) is reported as greater than 50 µM, the IC50 (HCC1937) is reported as greater than 50 µM and the IC50 (A549) is reported as greater than 50 µM. It also gave an IC50 (MCF7) greater than 50 µM and an IC50 (MRC-5) greater than 50 µM.

With Cc1ccc(S(=O)(=O)OC2CC3C4(C)CC(O)CC4(C)CCC34CC43CC=CC(C)(C)C23)cc1 (stereo not drawn) [SCG-03] the IC50 (HeLa) was greater than 50 µM, the IC50 (HCC1937) was greater than 50 µM and the IC50 (A549) was greater than 50 µM. The IC50 (MCF7) was greater than 50 µM and the IC50 (MRC-5) was greater than 50 µM.

Cc1ccc(S(=O)(=O)OC2CC3(C)CCC45CC46CCC(OS(=O)(=O)c4ccc(C)cc4)C(C)(C)C6C=CC5C3(C)C2)cc1 (stereo not drawn) [SCG-04] was tested, and the IC50 (HeLa) was greater than 50 µM, the IC50 (HCC1937) was greater than 50 µM and the IC50 (A549) was greater than 50 µM. It also gave an IC50 (MCF7) greater than 50 µM and an IC50 (MRC-5) greater than 50 µM.

In the case of Cc1ccc(S(=O)(=O)OC2CC3(C)CCC45CC46CCC(O)C(C)(C)C6C=CC5C3(C)C2)cc1 (stereo not drawn) [SCG-05], the IC50 (HeLa) is reported as greater than 50 µM, the IC50 (HCC1937) is reported as greater than 50 µM and the IC50 (A549) is reported as greater than 50 µM. It also gave an IC50 (MCF7) greater than 50 µM and an IC50 (MRC-5) greater than 50 µM.

CC1(C)C(OS(C)(=O)=O)CCC23CC24CCC2(C)CC(OS(C)(=O)=O)CC2(C)C4C=CC13 (stereo not drawn) [SCG-06] showed an IC50 (HeLa) greater than 50 µM, an IC50 (HCC1937) greater than 50 µM and an IC50 (A549) greater than 50 µM. The IC50 (MCF7) was greater than 50 µM and the IC50 (MRC-5) was greater than 50 µM.

CC1(C)C(O)CCC23CC24CCC2(C)CC(OS(C)(=O)=O)CC2(C)C4CC(O)C13 (stereo not drawn) [SCG-07] showed an IC50 (HeLa) greater than 50 µM, an IC50 (HCC1937) greater than 50 µM and an IC50 (A549) greater than 50 µM. The IC50 (MCF7) was greater than 50 µM and the IC50 (MRC-5) was greater than 50 µM.

In the case of CN(C)CCCN1c2ccccc2Sc2ccc(Cl)cc21 [chlorpromazine], the “protection of cells” value (HCC1937 cells [2]) is reported as “failed to rescue cells”.

C=C1[C@@H](C)[C@H]2[C@H](Cc3ccccc3)NC(=O)[C@]23[C@H](OC(C)=O)/C=C/[C@@](C)(O)C(=O)[C@@H](C)C/C=C/[C@H]3[C@@H]1O [cytochalasin D] was tested, and the “protection of cells” value (HCC1937 cells [2]) was “failed to rescue cells”.

O=C(N/N=C/c1ccc(O)c(O)c1)c1cc2ccccc2cc1O [dynasore] was tested, and the “protection of cells” value (HCC1937 cells [2]) was “failed to rescue cells”.

O=C1N=C(NS(=O)(=O)c2cccc3ccccc23)SC1=Cc1ccc(Br)cc1 [pitstop II] was tested, and the “protection of cells” value (HCC1937 cells [2]) was “effectively protected cells”.

With CN[C@@H]1C[C@H]2O[C@@](C)([C@@H]1OC)n1c3ccccc3c3c4c(c5c6ccccc6n2c5c31)C(=O)NC4 [staurosporine, reference compound] the “cytotoxicity of filtrate after 220 nm filtration” value (HCC1937 cells [3]) was “still effectively caused cell death”.

For methyl β-cyclodextrin, the “protection of cells” value (HCC1937 cells [2]) was “effectively protected cells”.
